Measured values from US11208387B2, “Macrocyclic broad spectrum antibiotics” (Genentech, Inc., priority 2019, dated 2021).
Converted amounts (≈) assume the structure as drawn. Where two headings read alike, the source gives them in different places.

Legend:
Test in all cases: Serum MIC, broth micro-dilution
Assay type in all cases: cell-based
[1] = system: Acinetobacter baumannii ATCC 17978
Outline: (§1)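 Half mouse serum, half cation-adjusted MH II broth (v/v) served as test medium; bacteria at final OD600 0.0005 were exposed to serial 2-fold compound dilutions for 22 h, 35° C, and the MIC was determined per CLSI M07-A8.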

[2] = system: Escherichia coli strain ATCC 25922
Outline: as §1

[3] = system: Klebsiella pneumoniae ATCC 700603
Outline: as §1

[4] = system: Pseudomonas aeruginosa PA01; settings: for MIC: Pseudomonas aeruginosa
Outline: as §1

[5] = Acinetobacter baumannii, ATCC17978, 50% v/v mouse serum in Mueller Hinton II cation adjusted Broth, 35° C., 22 hours, Table 4, read-out: A. baumanii 17978 Serum MIC
[6] = Acinetobacter baumannii, ATCC17978, 50% v/v mouse serum in Mueller Hinton II cation adjusted Broth, 35° C., 22 hours, Table 5, read-out: Acinetobacter baumanii 17978 Serum MIC
[7] = Escherichia coli, ATCC25922, 50% v/v mouse serum in Mueller Hinton II cation adjusted Broth, 35° C., 22 hours, Table 4, read-out: E. coli 25922 Serum MIC
[8] = Klebsiella pneumoniae, ATCC700603, 50% v/v mouse serum in Mueller Hinton II cation adjusted Broth, 35° C., 22 hours, Table 4, read-out: K pneumoniae 700603 Serum MIC
[9] = PA01, 50% v/v mouse serum in Mueller Hinton II cation adjusted Broth, 35° C., 22 hours, Table 4, read-out: P. aeruginosa 01 Serum MIC
[10] = Acinetobacter baumannii, ATCC17978, 50% v/v mouse serum, compounds of Table 1, Table 7, read-out: A. baumanii 17978 Serum MIC
[11] = Escherichia coli, ATCC25922, 50% v/v mouse serum, compounds of Table 1, Table 7, read-out: E. coli 25922 Serum MIC
[12] = Klebsiella pneumoniae, ATCC700603, 50% v/v mouse serum, compounds of Table 1, Table 7, read-out: K. pneumoniae 700603 Serum MIC
[13] = PA01, 50% v/v mouse serum, compounds of Table 1, Table 7, read-out: P. aeruginosa 01 Serum MIC

Row | Compound | MIC [1, 5] [µM] | MIC [1, 6] [µM] | MIC [2, 7] [µM] | MIC [3, 8] [µM] | MIC [4, 9] [µM] | other results
1 | Cc1nc(-c2ccc(C(C)(C)C)c(F)c2)nc(N)c1C(=O)N[C@@H](CNS(N)(=O)=O)C(=O)N(C)[C@@H]1C(=O)N[C@@H](C)C(=O)N[C@H](C(=O)O)Cc2ccc(OC[C@H](O)CN)c(c2)-c2cc1cc(OC[C@H](O)CN)c2O [Example 60, (8S,11S,14S)-14-[[(2S)-2-[[4-amino-2-(4-tert-butyl-3-fluoro-phenyl)-6-methyl-pyrimidine-5-carbonyl]amino]-3-(sulfamoylamino)-propanoyl]-methyl-amino]-3,17-bis[(2R)-3-amino-2-hydroxy-propoxy]-18-hydroxy-11-methyl-10,13-dioxo-9,12-diazatricyclo-[13.3.1.12,6]icosa-1(18),2(20),3,5,15(19), 16-hexaene-8-carboxylic acid] | 12 (≈ 12.3 µg/mL) | 12 (≈ 12.3 µg/mL) | 0.5 (≈ 0.513 µg/mL) | 0.75 (≈ 0.77 µg/mL) | 4 (≈ 4.1 µg/mL) | –
2 | Cc1nc(-c2ccc(C(C)(C)C)cc2)cc(CN)c1C(=O)N[C@@H](CNS(N)(=O)=O)C(=O)N(C)[C@@H]1C(=O)N[C@@H](C)C(=O)N[C@H](C(=O)O)Cc2ccc(OC[C@H](O)CN)c(c2)-c2cc1cc(OC[C@H](O)CN)c2O [Example 63, (8S,11S,14S)-3,17-bis[(2R)-3-amino-2-hydroxy-propoxy]-14-[[(2S)-2-[[4-(amino-methyl)-6-(4-tert-butylphenyl)-2-methyl-pyridine-3-carbonyl]amino]-3-(sulfamoylamino)-propanoyl]-methyl-amino]-18-hydroxy-11-methyl-10,13-dioxo-9,12-diazatri-cyclo[13.3.1.12,6]icosa-1(18),2(20),3,5,15(19), 16-hexaene-8-carboxylic acid] | 16 (≈ 16.3 µg/mL) | 16 (≈ 16.3 µg/mL) | 1 (≈ 1.02 µg/mL) | 0.5 (≈ 0.511 µg/mL) | 16 (≈ 16.3 µg/mL) | –
3 | Cc1nc(-c2ccc(CC(C)(C)C)cc2)nc(N)c1C(=O)N[C@@H](CNS(N)(=O)=O)C(=O)N(C)[C@@H]1C(=O)N[C@@H](C)C(=O)N[C@H](C(=O)O)Cc2ccc(OC[C@H](O)CN)c(c2)-c2cc1cc(OC[C@H](O)CN)c2O [Example 42, (8S,11S,14S)-14-[[(2S)-2-[[4-amino-2-[4-(2,2-dimethyl-propyl)phenyl]-6-methyl-pyrimidine-5-carbonyl]amino]-3-(sulfamoylamino)-propanoyl]-methyl-amino]-3,17-bis[(2R)-3-amino-2-hydroxy-propoxy]-18-hydroxy-11-methyl-10,13-dioxo-9,12-diazatri-cyclo[13.3.1.12,6]icosa-1(18),2(20),3,5,15(19), 16-hexaene-8-carboxylic acid] | 8 (≈ 8.18 µg/mL) | 8 (≈ 8.18 µg/mL) | 0.5 (≈ 0.511 µg/mL) | 0.75 (≈ 0.767 µg/mL) | 4 (≈ 4.09 µg/mL) | –
4 | Cc1nc(N2CCC(C(C)(C)C)CC2)nc(N)c1C(=O)N[C@@H](CCN)C(=O)N(C)[C@@H]1C(=O)N[C@@H](C)C(=O)N[C@H](C(=O)O)Cc2ccc(OC[C@H](O)CN)c(c2)-c2cc1cc(OC[C@H](O)CN)c2O [Example 25, (8S,11S,14S)-18-hydroxy-11-methyl-14-[methyl-[(2S)-4-amino-2-[[4-amino-2-(4-tert-butyl-1-piperidyl)-6-methyl-pyrimidine-5-carbonyl]amino]-butanoyl]amino]-10,13-dioxo-3,17-bis[(2R)-3-amino-2-hydroxy-propoxy]-9,12-diazatricyclo-[13.3.1.12,6]icosa-1(18),2(20),3,5,15(19), 16-hexaene-8-carboxylic acid] | 16 (≈ 15.2 µg/mL) | 16 (≈ 15.2 µg/mL) | 1 (≈ 0.95 µg/mL) | 0.5 (≈ 0.475 µg/mL) | 64 (≈ 60.8 µg/mL) | –
5 | Cc1nc(-c2ccc(C(C)(C)C)cc2)nc(C)c1C(=O)N[C@@H](CCN)C(=O)N(C)[C@@H]1C(=O)N[C@@H](C)C(=O)N[C@H](C(=O)O)Cc2ccc(O)c(c2)-c2cc1ccc2OCCN (racemic) [Example 646] | – | – | – | – | – | MIC [1, 10]: 69 µM (≈ 56.8 µg/mL); MIC [2, 11]: 0.55 µM (≈ 0.453 µg/mL); MIC [3, 12]: 0.58 µM (≈ 0.477 µg/mL); MIC [4, 13]: 69 µM (≈ 56.8 µg/mL)
6 | Cc1nc(-c2ccc(C(C)(C)C)cc2)nc(C)c1C(=O)N[C@@H](CCN)C(=O)N(C)[C@@H]1C(=O)N[C@@H](C)C(=O)N[C@H](C(=O)O)Cc2cc(OCCN)c(O)c(c2)-c2cc1ccc2OCCN (racemic) [Example 563] | – | – | – | – | – | MIC ([1]; Acinetobacter baumannii, ATCC17978, read-out: A. baumanii 17978 Serum MIC): 64 µM (≈ 56.5 µg/mL); MIC ([2]; Escherichia coli, ATCC25922, read-out: E. coli 25922 Serum MIC): 0.75 µM (≈ 0.662 µg/mL); MIC ([3]; Klebsiella pneumoniae, ATCC700603, read-out: K. pneumoniae 700603 Serum MIC): 0.75 µM (≈ 0.662 µg/mL); MIC ([4]; PA01, read-out: P. aeruginosa 01 Serum MIC): 64 µM (≈ 56.5 µg/mL)
7 | C[C@@H]1NC(=O)[C@@H](N(C)C(=O)[C@H](CNS(N)(=O)=O)NC(=O)c2cnc(-c3ccc(C(C)(C)C)cc3)nc2)c2cc(OC[C@H](O)CN)c(O)c(c2)-c2cc(ccc2OC[C@H](O)CN)C[C@@H](C(=O)O)NC1=O [Example 71, (8S,11S,14S)-3,17-bis[(2R)-3-amino-2-hydroxy-propoxy]-14-[[(2S)-2-[[2-(4-tert-butylphenyl)-pyrimidine-5-carbonyl]amino]-3-(sulfamoylamino)-propanoyl]-methyl-amino]-18-hydroxy-11-methyl-10,13-dioxo-9,12-diazatri-cyclo[13.3.1.12,6]icosa-1(18),2(20),3,5,15(19), 16-hexaene-8-carboxylic acid] | 8 (≈ 7.83 µg/mL) | 8 (≈ 7.83 µg/mL) | 0.25 (≈ 0.245 µg/mL) | 0.5 (≈ 0.49 µg/mL) | 8 (≈ 7.83 µg/mL) | –
8 | Cc1nc(-c2ccc(C(C)(C)C)cc2)ncc1C(=O)N[C@@H](CCN)C(=O)N(C)[C@@H]1C(=O)N[C@@H](C)C(=O)N[C@H](C(=O)O)Cc2ccc(OCCN)c(c2)-c2cc1ccc2OCCN (racemic) [Example 640] | – | – | – | – | – | MIC [1, 10]: 64 µM (≈ 54.5 µg/mL); MIC [2, 11]: 0.5 µM (≈ 0.426 µg/mL); MIC [3, 12]: 0.75 µM (≈ 0.639 µg/mL); MIC [4, 13]: 64 µM (≈ 54.5 µg/mL)
9 | Cc1nc(-c2ccc(C(C)(C)C)cc2CO)nc(N)c1C(=O)N[C@@H](CNS(N)(=O)=O)C(=O)N(C)[C@@H]1C(=O)N[C@@H](C)C(=O)N[C@H](C(=O)O)Cc2ccc(OC[C@H](O)CN)c(c2)-c2cc1cc(OC[C@H](O)CN)c2O [Example 58, (8S,11S,14S)-14-[[(2S)-2-[[4-amino-2-[4-tert-butyl-2-(hydroxymethyl)-phenyl]-6-methyl-pyrimidine-5-carbonyl]amino]-3-(sulfamoylamino)-propanoyl]-methyl-amino]-3,17-bis[(2R)-3-amino-2-hydroxy-propoxy]-18-hydroxy-11-methyl-10,13-dioxo-9,12-diazatricyclo-[13.3.1.12,6]icosa-1(18),2(20),3,5,15(19), 16-hexaene-8-carboxylic acid] | 48 (≈ 49.8 µg/mL) | 48 (≈ 49.8 µg/mL) | 4 (≈ 4.15 µg/mL) | 4 (≈ 4.15 µg/mL) | 16 (≈ 16.6 µg/mL) | –
10 | Cc1cc(-c2ccc(C(C)(C)C)cc2F)nc(N)c1C(=O)N[C@@H](CNS(N)(=O)=O)C(=O)N(C)[C@@H]1C(=O)N[C@@H](C)C(=O)N[C@H](C(=O)O)Cc2ccc(OC[C@H](O)CN)c(c2)-c2cc1cc(OC[C@H](O)CN)c2O [Example 35, (8S,11S,14S)-14-[[(2S)-2-[[2-amino-6-(4-tert-butyl-2-fluoro-phenyl)-4-methyl-pyridine-3-carbonyl]amino]-3-(sulfamoylamino)-propanoyl]-methyl-amino]-3,17-bis[(2R)-3-amino-2-hydroxy-propoxy]-18-hydroxy-11-methyl-10,13-dioxo-9,12-diazatricyclo-[13.3.1.12,6]icosa-1(18),2(20),3,5,15(19), 16-hexaene-8-carboxylic acid] | 16 (≈ 16.4 µg/mL) | 16 (≈ 16.4 µg/mL) | 0.5 (≈ 0.513 µg/mL) | 0.5 (≈ 0.513 µg/mL) | 8 (≈ 8.2 µg/mL) | –
11 | COc1c(OC[C@H](O)CN)cc2cc1-c1cc(ccc1OC[C@H](O)CN)C[C@@H](C(=O)O)NC(=O)[C@H](C)NC(=O)[C@H]2N(C)C(=O)[C@H](CNS(N)(=O)=O)NC(=O)c1c(C)nc(-c2ccc(C(C)(C)C)cc2)nc1N [Example 75, (8S,11S,14S)-14-[[(2S)-2-[[4-amino-2-(4-tert-butylphenyl)-6-methyl-pyrimidine-5-carbonyl]amino]-3-(sulfamoylamino)-propanoyl]-methyl-amino]-3,17-bis[(2R)-3-amino-2-hydroxy-propoxy]-18-methoxy-11-methyl-10,13-dioxo-9,12-diazatri-cyclo[13.3.1.12,6]icosa-1(18),2(20),3,5,15(19), 16-hexaene-8-carboxylic acid] | – | – | – | – | – | MIC ([1]; 50% v/v mouse serum in Mueller Hinton II cation adjusted Broth, 35° C., 22 hours, Table 4, read-out: A. baumanii 17978 Serum MIC): 16 µM (≈ 16.4 µg/mL); MIC ([1]; 50% v/v mouse serum in Mueller Hinton II cation adjusted Broth, 35° C., 22 hours, Table 5, read-out: Acinetobacter baumanii 17978 Serum MIC): 16 µM (≈ 16.4 µg/mL); MIC ([2]; 50% v/v mouse serum in Mueller Hinton II cation adjusted Broth, 35° C., 22 hours, Table 4, read-out: E. coli 25922 Serum MIC): 0.75 µM (≈ 0.767 µg/mL); MIC ([3]; 50% v/v mouse serum in Mueller Hinton II cation adjusted Broth, 35° C., 22 hours, Table 4, read-out: K. pneumoniae 700603 Serum MIC): 0.5 µM (≈ 0.511 µg/mL); P. aeruginosa 01 Serum MIC ([4]; 50% v/v mouse serum in Mueller Hinton II cation adjusted Broth, 35° C., 22 hours, Table 4): 8 µM
